Source: US20090131356A1, “miR-15, miR-26, miR-31, miR-145, miR-147, miR-188, miR-215, miR-216, miR-331, mmu-miR-292-3P REGULATED GENES AND PATHWAYS AS TARGETS FOR THERAPEUTIC INTERVENTION” (ASURAGEN, INC., priority 2006, published 2009)

Experiments:
[1] = tested on: human A549 lung cancer xenografts; assay: A549 lung cancer xenograft, cells electroporated with miRNA before implantation; format: in vivo, NOD/SCID mice; conditions: cells electroporated with 5 μg miRNA, injected subcutaneously; tumors measured days 14-20; vs negative control miRNA
Method: The inventors assessed the growth-inhibitory activity of hsa-miR-147 in a human lung cancer xenograft grown in immunodeficient mice. Hsa-miR-147 was delivered into A549 lung cancer cells via electroporation using the BioRad GenePulserXcell™ instrument with the following settings: 15×10^6 cells with 5 μg miRNA in 200 μl OptiMEM, square wave pulse at 150 V for 10 ms. A total of 30×10^6 A549 cells was used to 5×10^6 electroporated cells were mixed with matrigel in a 1:1 ratio and injected subcutaneously into the flank of NOD/SCID mice. As a negative control, A549 cells were electroporated with negative control miRNA (pre-miR-NC#2, Ambion) as describe above. NC miRNA-treated cells were injected into the opposite flank of the same animal to control for animal-to-animal variability. A total of 30×10^6 A549 cells per hsa-miR-147 and NC was used to accommodate 5 injections into 5 animals. Size measurements of tumors started 14 days after injection once tumors have reached a measurable size. Length and width of tumors were determined every day for the following 6 days. Tumor volumes were calculated using the formula V=length×width^2/2 in which the length is greater than the width. Tumor volumes derived from NC-treated cells and hsa-miR-147-treated cells were averaged and plotted over time (FIG. 5). Standard deviations are shown in the graph. […]

PPC-1 cells = assay: Alamar Blue proliferation assay, PPC-1; format: cell-based, human; conditions: 30 nM, normalized to negative control miRNA (100% proliferation)
Description: (§1) The inventors assessed the therapeutic effect of hsa-miR-147 for prostate cancer by using 4 individual human prostate cancer cell lines. To measure cellular proliferation of prostate cancer cells, the following prostate cancer cell lines were used: PPC-1 and PC3, derived from a bone metastasis; Du145, derived from a brain metastasis; RWPE2, derived from prostate cells immortalized by human papillomavirus 18 and transformed by the K-RAS oncogene (Bello et al., 1997; Stone et al., 1978; Brothman et al., 1991). PC3, PPC-1, and Du145 cells lack expression of the prostate-specific antigen (PSA) and are independent of androgen receptor (AR) signaling. In contrast, RWPE2 cells test positive for PSA and AR.
(§2) PPC-1, Du145 and RWPE2 cells were transfected with synthetic hsa-miR-147 (Pre-miR™-hsa-miR-147, Ambion cat. no. AM17100) or negative control miRNA (NC; Pre-miR™ microRNA Precursor Molecule-Negative Control #2; Ambion cat. no. AM17111) in a 96-well format using a lipid-based transfection reagent. […] Proliferation was assessed 4-7 days post-transfection using Alamar Blue™ (Invitrogen) following the manufacturer's instructions. […] Fluorescent light units (FLU) were measured after 3 hours, normalized to the control, and plotted as percent change in proliferation. […]

RWPE2 cells = assay: Alamar Blue proliferation assay, RWPE2; format: cell-based, human; conditions: 30 nM, normalized to negative control miRNA (100% proliferation)
Description: as §1, §2

SCLC and NSCLC cells = conditions: various lung cancer cells, SCLC and NSCLC (Tsai et al., 1993; Ohsaki et al., 1992); cited from earlier work

Row | Molecule | tumor growth of A549 xenograft [1] | % proliferation (PPC-1 cells) | % proliferation (RWPE2 cells) | IC50 (SCLC and NSCLC cells)
1 | hsa-miR-147: Synthetic pre-miR-147 (Ambion AM17100; Dharmacon in vivo); mature sequence GUGUGUGGAAAUGCUUCUGC, MIMAT0000251, SEQ ID NO:114 (synthetic pre-miR (Ambion/Dharmacon), chemistry not given here; listed as Homo sapiens) | inhibited tumor growth in vivo | 76.98% | 79.08% | –
2 | COc1cc([C@@H]2c3cc4c(cc3[C@@H](O[C@@H]3O[C@@H]5CO[C@@H](C)O[C@H]5[C@H](O)[C@H]3O)[C@H]3COC(=O)[C@H]23)OCO4)cc(OC)c1O [Etoposide, etoposide] | – | – | – | 1 to 25 µM
